Patent US7446094B2, “Cytotoxic depsipeptides” (Instituto Biomar S.A., priority 2003, dated 2008)

Experiments:
[1] = system: Hela S3 cells; conditions: from JP 11180997; cited from earlier work
[2] = system: 5637; test: MTS tetrazolium cytotoxicity assay; format: cell-based; conditions: Homo sapiens, 72 h, read-out: Cytotoxic activity (IC50)
Text: (§1) The finality of these assays is to interrupt the growth of an “in vitro” tumour cell culture by means a continued exhibition of the cells to the sample to be testing. The following human cell lines were used:
(§2) Tetrazolium Assay MTS is based on metabolic reduction of MTS to solubilized formazan crystals by the metabolically active mitochondria of living cells. For this reason, the methodology includes counting of the cell lines based on viability staining to ensure that cell concentrations are corrected to allow for 100% living cells into each well in lieu of Coulter counting or estimated dilutions based on standard growth curves.
(§3) Medium containing drug was removed at the end of the treatment and culture plates rinsed one time with PBS. Afterward, cells were incubated in 200 μl of drug-free medium until 72 hours. After appropriate incubation time 25 μl of MTS+PMS solution was added to each microtiter well and incubated for 4 hours at 37° C. Plates were then removed from the incubator and placed on plate shaker for 5 minutes (covered for protection from light). Optical densities were read at 490 nm on spectrophotometer plate reader. Data was analyzed using Softmax.
(§4) Data is presented as IC50 potencies calculated from 3rd order polynomial regression curves using Microsoft Excel and then manually interpolated.

[3] = system: 786-O; test: MTS tetrazolium cytotoxicity assay; format: cell-based; conditions: Homo sapiens, 786-0, 72 h, read-out: Cytotoxic activity (IC50)
Text: as §1, §2, §3, §4

[4] = system: A549; test: MTS tetrazolium cytotoxicity assay; format: cell-based; conditions: Homo sapiens, A549, 72 h, read-out: Cytotoxic activity (IC50)
Text: as §1, §2, §3, §4

[5] = system: BT-474; test: MTS tetrazolium cytotoxicity assay; format: cell-based; conditions: Homo sapiens, BT-474, 72 h, read-out: Cytotoxic activity (IC50)
Text: as §1, §2, §3, §4

[6] = system: CHSA; test: MTS tetrazolium cytotoxicity assay; format: cell-based; conditions: Homo sapiens, 72 h, read-out: Cytotoxic activity (IC50)
Text: as §1, §2, §3, §4

[7] = system: DU-145; test: MTS tetrazolium cytotoxicity assay; format: cell-based; conditions: Homo sapiens, DU-145, 72 h, read-out: Cytotoxic activity (IC50)
Text: as §1, §2, §3, §4

[8] = system: FADU; test: MTS tetrazolium cytotoxicity assay; format: cell-based; conditions: Homo sapiens, 72 h, read-out: Cytotoxic activity (IC50)
Text: as §1, §2, §3, §4

[9] = system: H9; test: MTS tetrazolium cytotoxicity assay; format: cell-based; conditions: Homo sapiens, H9, 72 h, read-out: Cytotoxic activity (IC50)
Text: as §1, §2, §3, §4

[10] = system: HL-60; test: MTS tetrazolium cytotoxicity assay; format: cell-based; conditions: Homo sapiens, HL-60, 72 h, read-out: Cytotoxic activity (IC50)
Text: as §1, §2, §3, §4

[11] = system: HT-29; test: MTS tetrazolium cytotoxicity assay; format: cell-based; conditions: Homo sapiens, HT-29, 72 h, read-out: Cytotoxic activity (IC50)
Text: as §1, §2, §3, §4

[12] = system: Hs746t; test: MTS tetrazolium cytotoxicity assay; format: cell-based; conditions: Homo sapiens, 72 h, read-out: Cytotoxic activity (IC50)
Text: as §1, §2, §3, §4

[13] = system: K562; test: MTS tetrazolium cytotoxicity assay; format: cell-based; conditions: Homo sapiens, K562, 72 h, read-out: Cytotoxic activity (IC50)
Text: as §1, §2, §3, §4

[14] = system: LNCAP; test: MTS tetrazolium cytotoxicity assay; format: cell-based; conditions: Homo sapiens, 72 h, read-out: Cytotoxic activity (IC50)
Text: as §1, §2, §3, §4

[15] = system: MC116; test: MTS tetrazolium cytotoxicity assay; format: cell-based; conditions: Homo sapiens, MC116, 72 h, read-out: Cytotoxic activity (IC50)
Text: as §1, §2, §3, §4

[16] = system: MX-1; test: MTS tetrazolium cytotoxicity assay; format: cell-based; conditions: Homo sapiens, MX1, 72 h, read-out: Cytotoxic activity (IC50)
Text: as §1, §2, §3, §4

[17] = system: Mel-28; test: MTS tetrazolium cytotoxicity assay; format: cell-based; conditions: Homo sapiens, SK-MEL-28, 72 h, read-out: Cytotoxic activity (IC50)
Text: as §1, §2, §3, §4

[18] = system: NCI-H187; test: MTS tetrazolium cytotoxicity assay; format: cell-based; conditions: Homo sapiens, NCI-H187, 72 h, read-out: Cytotoxic activity (IC50)
Text: as §1, §2, §3, §4

[19] = system: OSA-FH; test: MTS tetrazolium cytotoxicity assay; format: cell-based; conditions: Homo sapiens, 72 h, read-out: Cytotoxic activity (IC50)
Text: as §1, §2, §3, §4

[20] = system: PANC-1; test: MTS tetrazolium cytotoxicity assay; format: cell-based; conditions: Homo sapiens, PANC-1, 72 h, read-out: Cytotoxic activity (IC50)
Text: as §1, §2, §3, §4

[21] = system: PC-3; test: MTS tetrazolium cytotoxicity assay; format: cell-based; conditions: Homo sapiens, PC-3, 72 h, read-out: Cytotoxic activity (IC50)
Text: as §1, §2, §3, §4

[22] = system: SK-HEP-1; test: MTS tetrazolium cytotoxicity assay; format: cell-based; conditions: Homo sapiens, SK-HEP1, 72 h, read-out: Cytotoxic activity (IC50)
Text: as §1, §2, §3, §4

[23] = system: SK-N-MC; test: MTS tetrazolium cytotoxicity assay; format: cell-based; conditions: Homo sapiens, 72 h, read-out: Cytotoxic activity (IC50)
Text: as §1, §2, §3, §4

[24] = system: SK-OV-3; test: MTS tetrazolium cytotoxicity assay; format: cell-based; conditions: Homo sapiens, SK-OV-3, 72 h, read-out: Cytotoxic activity (IC50)
Text: as §1, §2, §3, §4

[25] = system: SW 694; test: MTS tetrazolium cytotoxicity assay; format: cell-based; conditions: Homo sapiens, 72 h, read-out: Cytotoxic activity (IC50)
Text: as §1, §2, §3, §4

[26] = system: SW-579; test: MTS tetrazolium cytotoxicity assay; format: cell-based; conditions: Homo sapiens, SW579, 72 h, read-out: Cytotoxic activity (IC50)
Text: as §1, §2, §3, §4

[27] = system: TT; test: MTS tetrazolium cytotoxicity assay; format: cell-based; conditions: Homo sapiens, 72 h, read-out: Cytotoxic activity (IC50)
Text: as §1, §2, §3, §4

[28] = system: Y-79; test: MTS tetrazolium cytotoxicity assay; format: cell-based; conditions: Homo sapiens, Y79, 72 h, read-out: Cytotoxic activity (IC50)
Text: as §1, §2, §3, §4

[29] = system: human breast tumour (MX-1 cell line) xenografts; test: Human breast tumour xenograft, net tumour growth; format: in vivo, female athymic mice; parameters: key to Net Tumour Growth ± S.E.M.: †: High mortality prevented meaningful statistical analysis; conditions: for Net Tumour Growth ± S.E.M.: MX-1 xenograft
Text: (§5) At different times, three human tumour cell lines MX-1 (breast), HT-29 (colon), and LX-1 (non-small cell lung), respectively, were implanted subcutaneously into separate groups of recipient female athymic mice as a small seedling of approximately 2-3 mm^3. Each tumour type was then allowed to grow inside the animal to reach a group mean size of 100±15 mm^3, at which time tumour-bearing mice were randomized into groups (Staging Day). The Staging Day also coincided with Day 0 for drug dosing.
(§6) The test article was administered as a single intravenous (iv) bolus injection (i.e., QD×1) on the Staging Day (Day 0).
(§7) Tumour burden was determined for all animals throughout the study using a caliper, and the frequency was at least twice per week.
(§8) Protocols and criteria for drug activity were derived from those established by the National Cancer Institute for tumour systems similar to those used in these studies (NIH Publication No. 84-2635, In vivo cancer models 1976-1982). Statistical analysis of tumour volumes for each group of drug treated animals was performed according to the Mann Whitney nonparametric test based on comparisons to the vehicle control cohort within the same experiment.
(§9) Tumour lengths (L) and widths (W) were measured in millimeters (mm) using calipers, recorded, and tumour volume was calculated by the formula: Volume (mm^3)=L×W^2×0.5. Individual values were determined for each tumour-bearing athymic- mouse and specified day of measurement (day D). On the tumour Staging Day (Day 0), the tumour volume of a treated animal (T01) was subtracted from the corresponding tumour volume on each observation day (TD1). This provided the change (Δ) in tumour volume for the said treated athymic mouse (ΔT1=TD1−T01). The change in tumour volumes for each member of the control cohort (ΔC) was calculated in a similar fashion as above.
(§10) At randomization (Day 0) the average volume of the tumour mass was 100±15 mm^3 and the “net tumour growth” is really a difference between the size of the tumour on Day X and that on Day 0. The parameter S.E.M. is commonly used in statistics and stands for standard error of the mean in a distribution of N (size) experimental values.

[30] = system: human colon tumour (HT-29 cell line) xenografts; test: Human colon tumour xenograft, net tumour growth; format: in vivo, female athymic mice; conditions: for Net Tumour Growth ± S.E.M.: HT-29 xenograft, single iv dose 0.5 mg/kg
Text: as §5, §6, §7, §8, §9, §10

[31] = system: human non-small cell lung tumour (LX-1 cell line) xenografts; test: Human non-small cell lung tumour xenograft, net tumour growth; format: in vivo, female athymic mice; conditions: for Net Tumour Growth ± S.E.M.: LX-1 xenograft
Text: as §5, §6, §7, §8, §9, §10

[32] = Maximum tolerated dose in mice; conditions: CD-1, mouse, in vivo
[33] = single iv dose 1.0 mg/kg, DAY 3
[34] = single iv dose 1.0 mg/kg, DAY 6
[35] = single iv dose 1.0 mg/kg, DAY 10
[36] = single iv dose 1.5 mg/kg, DAY 3
[37] = single iv dose 1.5 mg/kg, DAY 6
[38] = single iv dose 1.5 mg/kg, DAY 10

CCC(C)C1NC(=O)c2nc(oc2-c2ccccc2)-c2csc(n2)-c2coc(n2)-c2coc(n2)-c2coc(n2)CNC(=O)C(C(C)C)NC1=O (centres unmarked)
IC50 [1]: 14 nM

C=C1NC(=O)C(C(C)C)NC(=O)C(C(C)CC)NC(=O)c2nc(oc2-c2ccccc2)-c2coc(n2)-c2csc(n2)-c2coc(n2)-c2coc1n2 (centres unmarked) [IB-01211]
IC50 [2]: 339 nM | IC50 [3]: 692 nM | IC50 [4]: 918 nM | IC50 [5]: 537 nM | IC50 [6]: 353 nM | IC50 [7]: 480 nM | IC50 [8]: 664 nM | IC50 [9]: 184 nM | IC50 [10]: 141 nM | IC50 [11]: 817 nM | IC50 [12]: 692 nM | IC50 [13]: 636 nM | IC50 [14]: 650 nM | IC50 [15]: 3390 nM | IC50 [16]: 862 nM | IC50 [17]: 508 nM | IC50 [18]: 29.7 nM | IC50 [19]: 720 nM | IC50 [20]: 424 nM | IC50 [21]: 621 nM | IC50 [22]: 664 nM | IC50 [23]: 537 nM | IC50 [24]: 946 nM | IC50 [25]: 720 nM | IC50 [26]: 452 nM | IC50 [27]: 4380 nM | IC50 [28]: 93.2 nM | Net Tumour Growth ± S.E.M. [29, 33]: 5 ± 3 mm^3 | Net Tumour Growth ± S.E.M. [29, 34]: 113 ± 62 mm^3 | Net Tumour Growth ± S.E.M. [29, 35]: 450 ± 137 mm^3 | Net Tumour Growth ± S.E.M. [29, 36]: † | Net Tumour Growth ± S.E.M. [29, 37]: † | Net Tumour Growth ± S.E.M. [29, 38]: † | antitumour effect in vivo ([29]; breast tumour, dose of 0.29 MTD): trend to significance | Net Tumour Growth ± S.E.M. ([30]; DAY 1): 26 ± 11 mm^3 | Net Tumour Growth ± S.E.M. ([30]; DAY 4): 53 ± 28 mm^3 | Net Tumour Growth ± S.E.M. ([30]; DAY 8): 162 ± 34 mm^3 | antitumour effect in vivo ([30]; colon tumour, dose of 0.14 MTD): not against colon tumour | Net Tumour Growth ± S.E.M. [31, 33]: 68 ± 29 mm^3 | Net Tumour Growth ± S.E.M. [31, 34]: 234 ± 11 mm^3 | Net Tumour Growth ± S.E.M. [31, 35]: 561 ± 60 mm^3 | Net Tumour Growth ± S.E.M. [31, 36]: 11 ± 19 mm^3 | Net Tumour Growth ± S.E.M. [31, 37]: 121 ± 51 mm^3 | Net Tumour Growth ± S.E.M. [31, 38]: 309 ± 71 mm^3 | antitumour effect in vivo ([31]; human non-small cell lung tumour, dose of 0.43 MTD): significant antitumour effect | MTD [32]: 3.5 mg/kg
